Results on 22 compounds are retold here after US11046657B2, “Pyrimidinone derivatives and uses thereof to neutralize the biological activity of chemokines” (Centre National de la Recherche Scientifique (CNRS), priority 2016, dated 2021).

For data set [1], the target named is T1, CXCR4-CXCL12 binding (Homo sapiens, UniProt P48061).
T1 construct: expressed in transfected cells
The data set can be described thus: Inhibition of CXCL12-TR binding to CXCR4-GFP (FRET). Particulars: for Affinity for CXCL12 (SAR): deduced from comparative examples. On the procedure:
Study of the changes of CXCR4-CXCL12 binding was achieved by the energy transfer technique^10,11.
Binding of Texas red-labelled CXCL12 with CXCR4-GFP fused receptor^11 induces fluorescence resonance energy transfer (FRET), which can be monitored by the reduction of GFP fluorescence emission. The characterization of CXCL12 neutraligands was evaluated in two conditions, differing by the sequence of addition of molecules. Reduction of GFP fluorescence emission was more important when neutraligands were preincubated (30 min) […] prior to the addition to cells.
The CXCR4 antagonist, T134 (20 μM) was used as a control in both incubation protocols. Data obtained were consistent with a binding to the chemokine and not to its receptor. Consequently, all selected compounds are indeed CXCL12 chemokine neutraligands and behave as chalcone-4. The neutralizing properties of the compounds are thus confirmed.

Counter-ions that a name gives are not always drawn.

T1 sequence (P48061 22-89 limits assumed): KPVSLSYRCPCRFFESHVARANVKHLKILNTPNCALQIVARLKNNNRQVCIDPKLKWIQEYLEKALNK

In data set [1] (Table 2), `COc1cc(-c2cc(-c3ccc(C(C)C)cc3)nc(=O)[nH]2)ccc1O` [(4), 4-(4-isopropylphenyl)-6-(4-hydroxy-3-methoxyphenyl)-pyrimidin-2(1H)-one] came in with an inhibition at 10 µM of 35 ± 4%.
Turning to `COc1cc(-c2cc(-c3ccccc3Cl)nc(=O)[nH]2)ccc1O` [(7), 4-(2-chlorophenyl)-6-(4-hydroxy-3-methoxyphenyl)pyrimidin-2(11H)-one], 10 µM produced 62 ± 5% inhibition in data set [1] (Table 2).
Compound `COc1cc(-c2cc(-c3ccc(O)c(C)c3)nc(=O)[nH]2)ccc1O` [(59)] yielded an inhibition at 10 µM in data set [1] (Table 3) of 83 ± 2%.
Take `COc1cc(-c2cc(-c3ccc(N4CCN(C)CC4)cc3)nc(=O)[nH]2)ccc1O` (as salt: hydrochloride): the melting point is 300 to 303 °C.
Compound `COc1cc(-c2cc(-c3ccc(Cl)s3)nc(=O)[nH]2)ccc1O` [(33), 4-(5-chlorothiophen-2-yl)-6-(4-hydroxy-3-methoxyphenyl)pyrimidin-2(1H)-one] had an inhibition at 10 µM in data set [1] (Table 4) of 58 ± 15%.
As for `O=c1nc(-c2ccc(Cl)cc2)cc(-c2ccc(O)cc2)[nH]1` [compound (A), 4-(4-chlorophenyl)-6-(4-hydroxyphenyl)pyrimidin-2(1H)-one, reference compound], the inhibition at 10 µM in data set [1] (Table 2) was found to be 4.3 ± 3%. The “Affinity for CXCL12 (SAR)” value in data set [1] was “loss of affinity”.
In turn, `COc1cc(-c2cc(-c3ccc(N(C)C)nc3)nc(=O)[nH]2)ccc1O.Cl` had a melting point of 257 to 260 °C.
Take `COc1cc(-c2cc(-c3ccc(O)cc3)nc(=O)[nH]2)ccc1O` [(3), 4-(4-hydroxyphenyl)-6-(4-hydroxy-3-methoxyphenyl)-pyrimidin-2(1H)-one]: the inhibition at 10 µM in data set [1] (Table 2) turned out to be 53 ± 6%.
In turn, `Cl.NCCOc1cc(-c2cc(-c3ccc(Cl)cc3)nc(=O)[nH]2)ccc1O` came in with a melting point of 272 to 276 °C.
With `COc1cc(-c2cc(-c3ccc(N4CCNCC4)cc3)nc(=O)[nH]2)ccc1O.Cl`, the melting point fell in the range of 117 to 124 °C.
Take `O=c1nc(-c2ccc(Cl)cc2)cc(-c2ccccc2)[nH]1` [compound (B), 4-(4-chlorophenyl)-6-phenylpyrimidin-2(1H)-one, reference compound]: the inhibition at 10 µM in data set [1] (Table 2) is 19 ± 7%.
For `COc1cccc(-c2cc(-c3ccc(Cl)cc3)nc(=O)[nH]2)c1` [compound (C), 4-(4-chlorophenyl)-6-(3-methoxyphenyl)pyrimidin-2(1H)-one, reference compound], in data set [1] (Table 2), testing at 10 µM gave an inhibition of 10 ± 5%. For the same compound, the “Affinity for CXCL12 (SAR)” value in data set [1] was “loss of affinity”.
Compound `COc1cc(-c2cc(-c3ccc(F)cc3)nc(=O)[nH]2)ccc1O` [(5), 4-(4-fluorophenyl)-6-(4-hydroxy-3-methoxyphenyl)pyrimidin-2(1H)-one] yielded an inhibition at 10 µM in data set [1] (Table 2) of 46 ± 4%.
`COc1ccc(-c2cc(-c3ccc(Cl)cc3)nc(=O)[nH]2)cc1OC` [(D), 4-(4-chlorophenyl)-6-(4-methoxy-3-methoxyphenyl)pyrimidin-2(1H)-one, reference compound] yielded an inhibition at 10 µM in data set [1] (Table 3) of 26 ± 1%.
As to `COc1cc(-c2cc(-c3ccc[nH]3)nc(=O)[nH]2)ccc1O` [(60)], in data set [1] (Table 4), the inhibition at 10 µM amounted to 53 ± 14%.
`COc1cc(-c2cc(-c3ccc(Cl)cc3)nc(=O)[nH]2)ccc1C(=O)O` [(27), 4-(6-(4-chlorophenyl)-2-oxo-2,3-dihydropyrimidin-4-yl)-2-methoxybenzoic Acid] displayed a melting point of 257 to 261 °C.
In data set [1] (Table 2), `COc1ccc(-c2cc(-c3ccc(O)c(OC)c3)[nH]c(=O)n2)cc1` [(2), 4-(4-methoxyphenyl)-6-(4-hydroxy-3-methoxyphenyl)-pyrimidin-2(1H)-one] yielded an inhibition at 10 µM of 96 ± 3%.
In the case of `COc1cc(-c2cc(-c3ccccc3)nc(=O)[nH]2)ccc1O` [(8), 4-(phenyl)-6-(4-hydroxy-3-methoxyphenyl)-pyrimidin-2(1H)-one], the inhibition at 10 µM in data set [1] (Table 2) came to 46 ± 8%.
Take `O=c1nc(-c2ccc(Cl)cc2)cc(-c2ccc(O)c(OC(F)(F)F)c2)[nH]1` [(9), 4-(4-chlorophenyl)-6-(4-hydroxy-3-(trifluoromethoxy)phenyl)pyrimidin-2(1H)-one]: the inhibition at 10 µM in data set [1] (Table 2) amounted to 52 ± 10%.
In turn, `COc1ccc(-c2cc(-c3ccc(Cl)cc3)nc(=O)[nH]2)cc1O` [(10), 4-(4-chlorophenyl)-6-(3-hydroxy-4-methoxyphenyl)pyrimidin-2(1H)-one] displayed an inhibition at 10 µM in data set [1] (Table 2) of 39 ± 7%.
In turn, `COc1ccc(-c2cc(-c3ccc(O)c(C)c3)nc(=O)[nH]2)cc1OC` [(E), 4-(4-hydroxy-3-methylphenyl)-6-(4-methoxy-3-methoxyphenyl)pyrimidin-2(1H)-one, reference compound] displayed an inhibition at 10 µM in data set [1] (Table 3) of 1.8 ± 0.7%.
For `COc1cc(-c2cc(-c3ccco3)nc(=O)[nH]2)ccc1O` [(28), 4-(furan-2-yl)-6-(4-hydroxy-3-methoxyphenyl)pyrimidin-2(1H)-one], in data set [1] (Table 4), testing at 10 µM gave an inhibition of 44 ± 1%.
